According to patent US20130317053A1, “EXTERNALLY-USED DRUG FOR TREATING SKIN DISORDER AND METHOD FOR PRODUCING SAME” (OSAKA UNIVERSITY, priority 2011, published 2013):

Legend:
TYR = assay: expression level of mRNA of TYR in melanocytes (real-time RT-PCR); format: cell-based
Procedure: (§1) 1.4×10^5 melanocytes were inoculated in wells of 6-well culture plate, and a medium 254 (produced by KURABO […] LTD.; M254500) was added to the wells. Subsequently, the plate was incubated for 24 hours at a temperature of 37° C. in a 5% CO2 environment.
(§2) Sirolimus was added to the respective wells so as to have a final concentration of 0 nM (that is, no sirolimus is added to a culture medium), 1 nmol/L, 10 nmol/L, and 20 nmol/L, respectively. The plates were incubated for 24 hours or 48 hours at a temperature of 37° C. in a 5% CO2 environment.
(§3) From the wells thus incubated, the medium 254 was removed. Then, an operation of adding PBS to the wells and removing the PBS from the wells was carried out three times to wash the melanocytes with the PBS.
(§4) To the wells from which the PBS had been removed, 175 μL of an RNA lysis buffer was added. The RNA lysis buffer is attached to a kit of an SV Total RNA Solution System (manufactured by Promega Corporation; Z3105).
(§5) Melanocytes were peeled off the plate with use of a cell scraper.
(§6) The RNA lysis buffer containing melanocytes was collected into a 1.5 mL Eppendorf tube. Then, RNAs were extracted from the collected buffer.
(§7) Real-time RT-PCR was carried out with use of the RNAs to detect expression of mRNAs of MITF, mRNAs of TYR, mRNAs of TYRP1, and mRNAs of GAPDH. An expression level of the mRNAs of MITF, an expression level of the mRNAs of TYR, and an expression level of the mRNAs of TYRP1 were each calculated as a relative expression level with respect to an expression level of the mRNA of GAPD.
(§8) This experiment was carried out three times to calculate an average value and a standard deviation of relative expression levels of mRNAs of each of MITF, TYR, and TYRP1. Whether or not there was a statistically significant difference between test results obtained with use of the respective external medicines was checked by calculating a p value with use of a Student's t-test having no correspondence. In a case where the p value was less than 0.05, a statistically significant difference was recognized.
(§9) To detect expression of the mRNAs of MITF, TagMan® Gene Expression Assays (produced by Applied biosystems, Inc.; Hs00165156_m1) was used. To detect expression of the mRNAs of TYR, TagMan® Gene Expression Assays (produced by Applied biosystems, Inc.; Hs00165976_m1). To detect expression of the mRNAs of TYRP1, TagMan® Gene Expression Assays (produced by Applied biosystems, Inc.; Hs00167051_m1) was used. To detect expression of the mRNAs of GAPDH, TagMan® Gene Expression Assays (produced by Applied biosystems, Inc.; Hs99999905_m1) was used.

VEGF [1] = assay: inhibition of VEGF expression in human fibroblast; format: cell-based; conditions: 20 nM, 72 hours
Procedure: (§10) A cell of angiofibroma, a human fibroblast, and HaCat, each of which was isolated from a patient with tuberous sclerosis complex, were used. Isolation of the cell of angiofibroma was carried out by removing angiofibroma from a patient who wished the angiofibroma to be removed and then using the primary culturing method. […] HaCat was purchased from German Cancer Research Center (dkfz). The cells obtained from the respective patients were used with the patients' consent.
(§11) The cell of angiofibroma, the human fibroblast, and HaCat were each cultured with use of a DME culture medium at a temperature of 37° C. in a 5% CO2 environment. During the culture of these cells, sirolimus was added to each of the culture mediums so as to have a final concentration of 0 nM (that is, no sirolimus is added to a culture medium (a control)), 1 nM, 10 nM, or 20 nM. The cells were each incubated again at a temperature of 37° C. in a 5% CO2 environment, and a culture supernatant was collected […] after sirolimus was added. A concentration of VEGF in the collected culture supernatant was measured with use of a kit (Quantikine® Human VEGF manufactured by R&D SYSTEMS®) for detecting VEGF.

MITF = assay: expression level of mRNA of MITF in melanocytes (real-time RT-PCR); format: cell-based
Procedure: as §1, §2, §3, §4, §5, §6, §7, §8, §9

VEGF [2] = assay: inhibition of VEGF expression in cell of angiofibroma; format: cell-based, human
Procedure: as §10, §11

VEGF [3] = assay: inhibition of VEGF expression in HaCat; format: cell-based; conditions: 20 nM, 72 hours
Procedure: as §10, §11

TYRP1 = assay: expression level of mRNA of TYRP1 in melanocytes (real-time RT-PCR); format: cell-based
Procedure: as §1, §2, §3, §4, §5, §6, §7, §8, §9

SMILES: CO[C@H]1C[C@@H]2CC[C@@H](C)[C@@](O)(O2)C(=O)C(=O)N2CCCC[C@H]2C(=O)O[C@H]([C@H](C)C[C@@H]2CC[C@@H](O)[C@H](OC)C2)CC(=O)[C@H](C)/C=C(\C)[C@@H](O)[C@@H](OC)C(=O)[C@H](C)C[C@H](C)/C=C/C=C/C=C/1C [sirolimus]
- relative expression levels of TYR (TYR; 1 nM, 24 hours, untreated 24 h 0.640±0.036): 0.820±0.047
- relative expression levels of TYR (TYR; 1 nM, 48 hours, untreated 48 h 0.771±0.009): 0.760±0.044
- relative expression levels of TYR (TYR; 20 nM, 24 hours, untreated 24 h 0.640±0.036): 0.921±0.029
- relative expression levels of TYR (TYR; 20 nM, 48 hours, untreated 48 h 0.771±0.009): 0.858±0.022
- concentration of VEGF decreased to (% of untreated) (VEGF [1]): about 30%
- rate of decrease in concentration of VEGF (ratio treated/untreated) (VEGF [1]): 0.336
- concentration of VEGF in culture supernatant (VEGF [1]; control 1492.7): 501.3 pg/mL
- relative expression levels of MITF (MITF; 1 nM, 24 hours, relative to GAPDH, untreated 24 h 100.00±3.37): 152.48±3.47
- relative expression levels of MITF (MITF; 1 nM, 48 hours, untreated 48 h 107.95±1.38): 129.41±3.43
- relative expression levels of MITF (MITF; 20 nM, 24 hours, untreated 24 h 100.00±3.37): 152.18±14.75
- relative expression levels of MITF (MITF; 20 nM, 48 hours, untreated 48 h 107.95±1.38): 141.56±3.52
- concentration of VEGF in culture supernatant (VEGF [2]; 1 nM, 48 hours, untreated 260.2857): 113.1428 pg/mL
- concentration of VEGF in culture supernatant (VEGF [2]; 10 nM, 48 hours, untreated 260.2857): 92.4285 pg/mL
- concentration of VEGF decreased to (% of untreated) (VEGF [2]; 20 nM, 72 hours): about 20%
- rate of decrease in concentration of VEGF (ratio treated/untreated) (VEGF [2]; 20 nM, 72 hours): 0.196
- concentration of VEGF in culture supernatant (VEGF [2]; 20 nM, 72 hours, control 858.4): 168 pg/mL
- concentration of VEGF decreased to (% of untreated) (VEGF [3]): about 40%
- rate of decrease in concentration of VEGF (ratio treated/untreated) (VEGF [3]): 0.405
- concentration of VEGF in culture supernatant (VEGF [3]; control 1849.9): 749.9 pg/mL
- relative expression levels of TYRP (TYRP1; 1 nM, 24 hours, untreated 24 h 1.031±0.027): 1.333±0.055
- relative expression levels of TYRP (TYRP1; 1 nM, 48 hours, untreated 48 h 1.338±0.029): 1.450±0.028
- relative expression levels of TYRP (TYRP1; 20 nM, 24 hours, untreated 24 h 1.031±0.027): 1.652±0.031
- relative expression levels of TYRP (TYRP1; 20 nM, 48 hours, untreated 48 h 1.338±0.029): 1.514±0.124
